Tests used:
Test in all cases: relative viability (nuclei count vs DMSO), 5 days (fraction); higher = more cells survive
[1] = compound: CCn1c(-c2nonc2N)nc2c(C#CC(C)(C)O)ncc(OC[C@H]3CCCNC3)c21 + O=C(CCCCCCC(=O)Nc1ccccc1)NO [Vorinostat] (partner 1 µM)
In short: (§1)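 One day after seeding in 1536-well plates, lung cancer cell lines were dosed by pin tool. Dosing was either single-drug or a fixed anchor-drug dose plus five library-drug doses (not always all listed) in √10 steps. After 5 days, nuclei were stained in one fix-and-stain step and counted on 4× images, and relative viability is the nuclei count of treated wells over that of vehicle wells, given as the median of duplicate plates.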

[2] = compound: CCOC1=CC=CC=C1N=NC2=C(NN(C2=O)C3=NC(=CS3)C4=CC=CC=C4)C [BAM7] + C[C@@H](Oc1cc(-c2cnn(C3CCNCC3)c2)cnc1N)c1c(Cl)ccc(F)c1Cl [Crizotinib] (partner 1 µM)
In short: as §1

[3] = compound: CCOC1=CC=CC=C1N=NC2=C(NN(C2=O)C3=NC(=CS3)C4=CC=CC=C4)C [BAM7] + CC(=O)c1c(C)c2cnc(Nc3ccc(N4CCNCC4)cn3)nc2n(C2CCCC2)c1=O [Palbociclib] (partner 0.5 µM)
In short: as §1

[4] = compound: CCn1c(-c2nonc2N)nc2c(C#CC(C)(C)O)ncc(OC[C@H]3CCCNC3)c21 + CC(C)C[C@H](NC(=O)[C@H](Cc1ccccc1)NC(=O)c1cnccn1)B(O)O [Bortezomib] (partner 0.002 µM)
In short: as §1

Cell Line	relative viability ([1]; first compound 0.01 µM)	relative viability ([1]; first compound 0.03162 µM)	relative viability ([1]; first compound 0.1 µM)	relative viability ([1]; first compound 0.3162 µM)	relative viability ([1]; first compound 1 µM)	relative viability ([2]; first compound 0.5 µM)	relative viability ([2]; first compound 5 µM)	relative viability ([2]; first compound 15.81 µM)	relative viability ([2]; first compound 50 µM)	relative viability ([3]; first compound 0.5 µM)	relative viability ([3]; first compound 5 µM)	relative viability ([3]; first compound 15.81 µM)	relative viability ([3]; first compound 50 µM)	relative viability ([4]; first compound 0.01 µM)	relative viability ([4]; first compound 0.03162 µM)	relative viability ([4]; first compound 0.1 µM)	relative viability ([4]; first compound 0.3162 µM)	relative viability ([4]; first compound 1 µM)
201T	0.952	0.995	0.919	0.894	0.958	0.957	1.02	0.876	0.883	0.358	0.336	0.307	0.335	1.1	1.14	1.1	1.07	1.09
A549	–	–	–	–	–	0.85	0.861	0.745	0.781	–	–	–	–	–	–	–	–	–
A-427	0.857	0.858	0.844	0.783	0.889	0.927	1	0.814	0.817	0.507	0.49	0.498	0.532	0.975	0.991	1.08	1.01	1.01
ABC-1	1.03	–	1.06	1.08	1.23	1.49	1.34	0.987	1.21	0.548	0.667	0.774	0.584	0.292	0.299	0.301	0.332	0.294
BEN	0.635	0.617	0.569	0.56	0.667	0.866	0.977	0.845	0.83	0.491	0.493	0.546	0.492	0.713	0.803	0.661	0.73	0.696
CAL-12T	0.747	0.679	0.683	0.675	0.603	0.737	0.941	0.695	0.652	0.593	0.372	0.419	0.513	0.939	0.852	1.08	1.16	1.1
COR-L23	0.433	0.558	0.437	0.368	0.387	0.785	0.685	0.601	0.604	0.284	0.315	0.294	0.275	1.01	0.961	0.97	0.884	0.938
COR-L 105	0.913	0.804	0.915	0.724	0.707	0.917	1.02	0.787	0.718	0.407	0.387	0.373	0.41	0.82	0.783	1	0.693	0.763
Calu-6	–	–	–	–	–	0.883	0.903	0.783	0.675	–	–	–	–	1.01	1.06	1.1	0.998	1.12
ChaGo-K-1	0.758	0.757	0.777	0.724	0.776	1.16	1.05	1.12	1.15	1.02	0.965	0.819	0.902	0.972	0.795	1.01	0.99	0.954
EBC-1	–	–	–	–	–	0.216	0.201	0.191	0.175	–	–	–	–	0.549	0.566	0.521	0.488	0.444
EKVX	0.705	0.765	0.689	0.726	0.807	1.15	0.963	0.54	0.711	0.444	0.39	0.337	0.429	1.01	0.862	1.15	0.994	0.965
EMC-BAC-2	0.203	–	0.448	0.429	0.448	0.849	0.852	0.74	0.857	0.512	0.519	0.524	0.563	1.02	1	0.996	1.06	1.07
EPLC-272H	0.507	0.426	0.573	0.393	0.571	0.928	0.986	1.02	0.982	0.349	0.315	0.327	0.351	0.859	0.957	0.894	0.96	0.847
H3255	0.832	0.704	0.815	0.693	0.448	0.981	0.883	0.795	0.814	0.337	0.341	0.359	0.355	0.634	0.679	0.83	0.788	0.688
HARA	0.487	0.488	0.638	0.44	0.532	1.1	1.15	0.887	1	0.253	0.224	0.229	0.243	1.1	1.14	1.08	1.07	1.11
HCC-15	0.97	0.858	0.894	0.769	0.881	0.812	0.811	0.785	0.724	0.621	0.694	0.614	0.686	0.988	1.06	1.01	0.925	0.952
HCC-44	1.07	1.07	1.05	1.07	1.04	0.883	0.907	0.749	0.787	0.956	0.974	0.925	0.981	0.893	0.808	0.89	0.907	0.911
HCC-78	0.434	0.452	0.455	0.416	0.436	0.339	0.334	0.324	0.308	0.487	0.383	0.49	0.45	0.553	0.513	0.503	0.498	0.527

Cell Line	relative viability ([1]; first compound 0.01 µM)	relative viability ([1]; first compound 0.03162 µM)	relative viability ([1]; first compound 0.1 µM)	relative viability ([1]; first compound 0.3162 µM)	relative viability ([1]; first compound 1 µM)	relative viability ([2]; first compound 0.5 µM)	relative viability ([2]; first compound 5 µM)	relative viability ([2]; first compound 15.81 µM)	relative viability ([2]; first compound 50 µM)	relative viability ([3]; first compound 0.5 µM)	relative viability ([3]; first compound 5 µM)	relative viability ([3]; first compound 15.81 µM)	relative viability ([3]; first compound 50 µM)	relative viability ([4]; first compound 0.01 µM)	relative viability ([4]; first compound 0.03162 µM)	relative viability ([4]; first compound 0.1 µM)	relative viability ([4]; first compound 0.3162 µM)	relative viability ([4]; first compound 1 µM)
HCC-366	0.278	0.3	0.329	0.367	0.372	0.552	0.654	0.471	0.641	0.406	0.343	0.303	0.389	0.989	1.05	0.913	1.01	1.12
HCC-827	0.86	0.866	0.831	0.76	0.834	0.917	0.873	0.932	0.839	0.532	0.467	0.493	0.481	1.07	1.04	1.09	0.988	1.02
IA-LM	1.04	0.961	0.953	0.859	1	0.725	1.16	0.619	0.784	–	–	–	–	0.854	0.77	0.877	0.679	0.373
LK-2	0.239	0.291	0.289	0.316	0.321	0.246	0.23	0.244	0.27	0.662	0.648	0.741	0.598	–	–	–	–	–
NCI-H358	0.766	0.691	0.787	0.629	0.662	0.76	0.589	0.522	0.52	–	0.129	0.141	0.137	–	–	–	–	–
NCI-H522	0.944	0.911	0.853	0.847	0.938	–	–	–	–	1.19	0.986	0.649	1.16	–	–	–	–	–
NCI-H596	0.569	–	0.553	0.58	0.633	0.97	1.03	0.913	0.978	–	–	–	–	1.02	0.956	0.969	1.38	0.999
NCI-H1299	–	–	–	–	–	0.98	1.01	1.01	0.946	–	–	–	–	1.02	1.04	0.992	0.988	1
NCI-H1395	0.575	0.517	0.597	0.525	0.52	–	–	–	–	0.578	0.627	0.606	0.614	–	–	–	–	–
NCI-H1563	–	–	–	–	–	0.974	0.942	0.889	0.841	–	–	–	–	0.963	0.842	0.752	0.829	0.796
NCI-H1648	0.591	0.418	0.365	0.367	0.315	–	–	–	–	0.303	0.257	0.264	0.375	–	–	–	–	–
NCI-H1703	–	–	–	–	–	0.694	0.652	0.621	0.633	–	–	–	–	0.327	0.391	0.339	0.201	0.209
NCI-H1792	–	–	–	–	–	0.984	1.06	1.06	0.906	0.642	0.687	0.624	0.66	1.04	0.968	0.964	0.861	0.768
NCI-H1793	0.652	0.692	–	0.605	0.704	–	–	–	–	0.252	0.291	0.251	0.34	–	–	–	–	–
NCI-H1944	0.645	0.477	0.568	0.514	0.585	0.984	1.15	0.839	0.821	0.365	0.366	0.281	0.37	–	–	–	–	–
NCI-H2170	0.841	0.764	0.836	0.699	0.85	1.12	1.07	0.873	0.989	0.38	0.381	0.329	0.319	–	–	–	–	–
NCI-H2342	0.713	0.647	0.579	0.724	0.782	–	–	–	–	0.482	0.498	0.531	0.539	–	–	–	–	–
SK-MES-1	1.08	1.1	1.1	1.05	1.1	1.05	1.01	0.961	1.04	0.332	0.35	0.308	0.272	–	–	–	–	–
SW 900	0.524	0.503	0.386	0.312	0.569	–	–	–	–	–	0.543	–	0.596	–	–	–	–	–
